In EP0840727B1, “3-HYDROXY-2(1H)-[…] AGENTS” (priority 1995, dated 1997):
Read-outs that look alike come from different tables or passages of the source. Marks after values point to notes of the source that are not given here.

Tests used:
[1] = ligand 30 µmol kg^-1 ip at 1 h after iv ^238Pu(IV) citrate, kill at 24 h, reported previously, cited from earlier work; for percent of injected ^238Pu at 24 h, excreta: feces and GI contents / percent of injected ^238Pu at 24 h, excreta: urine 0-24 h / percent of injected ^238Pu at 24 h, tissues: kidneys: pooled samples
[2] = Promoting excretion of 238Pu(IV) in mice by injected ligands; format: in vivo; conditions: for percent of injected ^238Pu ± SD at 24 h, tissues: liver / percent of injected ^238Pu ± SD at 24 h, tissues: skeleton / percent of injected ^238Pu ± SD at 24 h, tissues: soft tissue / percent of injected ^238Pu ± SD at 24 h, whole body / percent of injected ^238Pu at 24 h, excreta: feces and GI contents / percent of injected ^238Pu at 24 h, excreta: urine 0-24 h / percent of injected ^238Pu at 24 h, tissues: kidneys: ligand 30 µmol kg^-1 ip at 1 h after iv ^238Pu(IV) citrate, kill at 24 h; for percent of injected ^238Pu at 24 h, excreta: feces and GI contents / percent of injected ^238Pu at 24 h, excreta: urine 0-24 h / percent of injected ^238Pu at 24 h, tissues: kidneys: pooled samples
From the text: Animal studies were completed using methods detailed in Radiation Protection Dosimetry, in press, P. W. Durbin et al., "In Vivo Chelation of Am(III), Pu(IV), Np(V) and U(VI) in Mice by TREN-(Me-3,2-HOPO)"; Radiation Protection Dosimetry, 17, No. 1, 1989, p. 351, P. W. Durbin et al., "Removal of ^238Pu(IV) from Mice by Polycatechoylate, -Hydroxamate or -Hydroxypyridinonate Ligands"; Radiation Research, 99, 1984, p. 85, P. W. Durbin et al., "Specific Sequestering Agents for the Actinides ..."; Radiation Research, 99, 1984, p. 106, P. W. Durbin et al., "Removal of Pu and Am from Beagles and Mice ..."; Radiation Research, 81, 1980, p. 170, R. D. Lloyd et al., and P. W. Durbin et al., "Specific Sequestering Agents for the Actinides ...". The foregoing articles are hereby incorporated by reference.
Radionuclides used in the animal studies came from a variety of sources. However, they can be purchased commercially. The ^238Pu(IV) citrate and ^241Am(III) citrate solutions were prepared for animal injection by 8- to 10-fold dilution with 0.14M NaCl (pH 4) of concentrated stock solutions (0.08M sodium citrate buffer) that had been held in frozen storage at Lawrence Berkeley Laboratory (hereinafter LBL) for several years. [The ^238Pu(IV) was originally obtained from D. R. Atherton at the University of Utah Radiobiology Laboratory, Salt Lake City. The ^241Am(III) solution had been obtained many years earlier from the LBL Actinide Chemistry group.]
The novel chelating agents of the present invention and comparative compounds were tested for their effectiveness in promoting excretion ^238Pu(IV) in nice by injected ligands as follows. Mice, in groups of five, each received an intravenous injection of 1850 Bq ^238Pu(IV) in 0.2 mL of citrate buffer. One hour later, 30 µmol/kg of ligand was injected intraperitoneally in 0.5 mL of saline. The mice were killed 24 hours after the Pu injection, frozen, and dissected after partial thawing. The ^238Pu in skeleton, soft tissues, and separated excreta was determined by counting the ^234U L x-rays. Results of removal of ^238Pu(IV) from mice by injected ligands are summarized in Table 3, which also includes data for CaNa3-DTPA and other reference ligands and the Pu-injected controls. […] While the case of multidente 1,2-HOPO and catechoylamide chelating agents, octadentates are always better chelating agents than the corresponding hexadentates and tetradentates.

[3] = In vivo acute toxicity test of injected ligands in mice
Procedure: The test of acute toxicity of novel and comparative ligands was carried out as follows. Groups of five mice were each given a single i.p. injection of […] of ligand and a day for 10 days or given two i.p. injections of […] in 8 hours. The ligand was dissolved in 0.5 to 1.0 ml of saline at pH 7 to 8. After a period of observation, the mice were killed; selected tissues were removed and fixed for histopathological examination; and unusual findings at autopsy were recorded. […]

[4] = protocol IB, 100 µmol kg^-1, study length 5 d
[5] = protocol IA, 100 µmol kg^-1 x 2 daily, study length 3 d
[6] = protocol IA, 100 µmol kg^-1 x 2 daily, study length 11 d
[7] = protocol I, 100 µmol kg^-1 x 10 daily i.p., study length 11 d
[8] = protocol I, 100 µmol kg^-1 x 10 daily i.p., study length 21 d
[9] = protocol II, 500 µmol kg^-1 x 2 in 8 h, study length 8 d

Row | SMILES | percent of injected ^238Pu at 24 h, excreta: feces and GI contents [1] | percent of injected ^238Pu at 24 h, excreta: urine 0-24 h [1] | percent of injected ^238Pu at 24 h, tissues: kidneys [1] | percent of injected ^238Pu ± SD at 24 h, tissues: liver [1] | percent of injected ^238Pu ± SD at 24 h, tissues: skeleton [1] | percent of injected ^238Pu ± SD at 24 h, tissues: soft tissue [1] | percent of injected ^238Pu ± SD at 24 h, whole body [1] | percent of injected ^238Pu ± SD at 24 h, tissues: liver [2] | percent of injected ^238Pu ± SD at 24 h, tissues: skeleton [2] | percent of injected ^238Pu ± SD at 24 h, tissues: soft tissue [2] | percent of injected ^238Pu ± SD at 24 h, whole body [2] | percent of injected ^238Pu at 24 h, excreta: feces and GI contents [2] | percent of injected ^238Pu at 24 h, excreta: urine 0-24 h [2] | percent of injected ^238Pu at 24 h, tissues: kidneys [2] | further results
1 | CC(=O)N(O)CCCCCNC(=O)CCC(=O)N(O)CCCCCNC(=O)CCC(=O)N(O)CCCCCN [DFO, desferrioxamine B] | 15.1% of injected ^238Pu | 38% of injected ^238Pu | 1.8% of injected ^238Pu | 19 ± 13% of injected ^238Pu | 20 ± 11% of injected ^238Pu | 4.5 ± 1.4% of injected ^238Pu | 45 ± 2.5% of injected ^238Pu |  |  |  |  |  |  |  | 
2 | CC(=O)N(O)CCCCCNC(=O)CCC(=O)N(O)CCCCCNC(=O)CCC(=O)N(O)CCCCCNC(=O)c1cccc(=O)n1O [DFO-(1,2-HOPO)] | 46.7% of injected ^238Pu | 9.5% of injected ^238Pu |  | 5.1 ± 2.2^d percent of injected ^238Pu | 6.0 ± 0.5^d percent of injected ^238Pu | 2.3 ± 0.5^d percent of injected ^238Pu | 13 ± 2.9^d percent of injected ^238Pu |  |  |  |  |  |  |  | 
3 | Cn1ccc(C(=O)NCCCCNC(=O)c2ccn(C)c(=O)c2O)c(O)c1=O [4-LI-Me-3,2-HOPO] |  |  |  |  |  |  |  | 3.7 ± 1.5^d percent of injected ^238Pu | 11 ± 1.7% of injected ^238Pu | 1.9 ± 0.5% of injected ^238Pu | 17 ± 2.4^d percent of injected ^238Pu | 63% of injected ^238Pu | 19.4% of injected ^238Pu | 0.4% of injected ^238Pu | Pu removal (in words) ([2]; injected ligands, 30 µmol/kg intraperitoneally one hour after ^238Pu(IV)): as effective or more effective than the hexadentate and octadentate chelating agents; no. of survivors [3, 4]: 0; percent control mean + SD: body weight [3, 4]: 85 ± 8 percent control; percent control mean + SD: kidney weight [3, 4]: 190 ± 63 percent control; percent control mean + SD: plasma urea N [3, 4]: >2000 percent control
4 | O=C(NCCCCN(CCCNC(=O)c1cccc(=O)n1O)C(=O)c1cccc(=O)n1O)c1cccc(=O)n1O [3,4-LI(1,2-HOPO)] | 58% of injected ^238Pu | 7.9% of injected ^238Pu | 0.6% of injected ^238Pu | 18 ± 4.8% of injected ^238Pu | 9.9 ± 3.6% of injected ^238Pu | 5.8 ± 1.3% of injected ^238Pu | 34 ± 9.2% of injected ^238Pu |  |  |  |  |  |  |  | 
5 | CC(=O)N(O)CCCCCNC(=O)CCC(=O)N(O)CCCCCNC(=O)CCC(=O)N(O)CCCCCNC(=O)c1ccn(C)c(=O)c1O [DFO-Me-3,2-HOPO] | 26.4% of injected ^238Pu | 21% of injected ^238Pu | 3.0% of injected ^238Pu | 13 ± 3.5% of injected ^238Pu | 17 ± 2.4% of injected ^238Pu | 19 ± 3.0% of injected ^238Pu | 53 ± 3.4% of injected ^238Pu |  |  |  |  |  |  |  | 
6 | O=C(NCCCN(CCCCN(CCCNC(=O)c1cccc(=O)n1O)C(=O)c1cccc(=O)n1O)C(=O)c1cccc(=O)n1O)c1cccc(=O)n1O [3,4,3-LI(1,2-HOPO)] | 57% of injected ^238Pu | 23% of injected ^238Pu | 0.2% of injected ^238Pu | 8.9 ± 1.7^d percent of injected ^238Pu | 7.5 ± 0.7^d percent of injected ^238Pu | 1.6 ± 0.6^d percent of injected ^238Pu | 18 ± 1.7^d percent of injected ^238Pu |  |  |  |  |  |  |  | 
7 | Cn1ccc(C(=O)NCCCCCCNC(=O)c2ccn(C)c(=O)c2O)c(O)c1=O [6-LI-Me-3,2-HOPO, 1,6-bis[(3-hydroxy-1-methyl-2-oxo-1,2-dihydropyridin-4-yl)carboxamindo]hexane] |  |  |  |  |  |  |  | 6.5 ± 3.7^d percent of injected ^238Pu | 12 ± 1.8% of injected ^238Pu | 3.7 ± 1.8% of injected ^238Pu | 23 ± 4.9^d percent of injected ^238Pu | 62.9% of injected ^238Pu | 14.4% of injected ^238Pu | 0.5% of injected ^238Pu | no. of survivors [3, 5]: 5; percent control mean + SD: body weight [3, 5]: 83 ± 3 percent control; percent control mean + SD: kidney weight [3, 5]: 132 ± 11 percent control; percent control mean + SD: plasma urea N [3, 5]: 343 ± 140 percent control; no. of survivors [3, 6]: 3; percent control mean + SD: body weight [3, 6]: 101 ± 5 percent control; percent control mean + SD: kidney weight [3, 6]: 112 ± 13 percent control; percent control mean + SD: plasma urea N [3, 6]: 92 ± 6 percent control
8 | Cn1ccc(C(=O)NCCN(CCNC(=O)c2ccn(C)c(=O)c2O)CCN(CCNC(=O)c2ccn(C)c(=O)c2O)CCNC(=O)c2ccn(C)c(=O)c2O)c(O)c1=O [H(2,2)-Me-3,2-HOPO, N,N,N',N'-tetrakis[(3-hydroxyl-1-methyl-2-oxo-1,2-dihydropyridin-4-yl)carboxamido-ethyl]-ethylenediamine] |  |  |  |  |  |  |  | 3.8 ± 1.1^d percent of injected ^238Pu | 11 ± 1.7% of injected ^238Pu | 2.8 ± 1.6% of injected ^238Pu | 19 ± 2.9^d percent of injected ^238Pu | 45.3% of injected ^238Pu | 36% of injected ^238Pu | 1.3% of injected ^238Pu | no. of survivors [3, 7]: 5; percent control mean + SD: body weight [3, 7]: 92 ± 6 percent control; percent control mean + SD: plasma urea N [3, 7]: 223 ± 28 percent control; no. of survivors [3, 8]: 5; percent control mean + SD: body weight [3, 8]: 87 ± 9 percent control; percent control mean + SD: plasma urea N [3, 8]: 225 ± 188 percent control; no. of survivors [3, 9]: 3; percent control mean + SD: body weight [3, 9]: 94 ± 6 percent control; percent control mean + SD: plasma urea N [3, 9]: 169 ± 10 percent control
9 | O=C(NCc1cc(CNC(=O)c2cccc(=O)n2O)cc(CNC(=O)c2cccc(=O)n2O)c1)c1cccc(=O)n1O [ME-(1,2-HOPO)] | 43% of injected ^238Pu | 9.6% of injected ^238Pu | 1.8% of injected ^238Pu | 18 ± 6.3^d percent of injected ^238Pu | 17 ± 2.5% of injected ^238Pu | 10 ± 1.8% of injected ^238Pu | 47 ± 9.4% of injected ^238Pu |  |  |  |  |  |  |  | 
